Assay results as given in publication PMC8901119 (Chemical Science, 2021).
Values joined by “and” are separate entries in the source; they are usually repeats but may differ in a detail not shown here. Equal values may be shown once. Starred links: 1 amine or outer side, 2 acyl side, 3 side chain; linkers in the order of their positions; H or OH if unused. Non-standard residues stand in square brackets, D forms with d. Residues, ends and D or L forms follow the SMILES beside them. Ala(7-MeO-coumarin-4-yl) = COc1ccc2c(C[C@H](N)C(=O)O)cc(=O)oc2c1; X1 = C[C@H](NC(=S)[C@H](CCCNC(=N)N)N[*:1])C(=O)[*:2]

Experiments:
Cathepsin L = target: T1, Cathepsin L (Homo sapiens, UniProt P07711); assay: Cathepsin L inhibition assay in MDA-MB-231 cells (Magic Red); format: cell-based; conditions: for Cathepsin Activity (%), single technical replicates: normalized to 0.5% DMSO + Magic Red control, biological replicates 1 and 2
T1 construct: host or cells: MDA-MB-231 cells
Method: (§1) Phan et al. Electronic SupplementaryInformation
Cell Culture & Cathepsin L Inhibition Assays in MDA -MB-231 Cells
MDA-MB-231 cells (ATCC, #HBT-26) were seeded at 1 x 10^5/well in a black, 24-well, TC-treated plate (Corning). Cells were cultured in 400 µL media per well containing DMEM (Corning), 10% Fetal Bovine Serum (FBS; Atlanta Biologicals), and 1% Penicillin/Streptomycin (Gibco) at 37 °C in 5% CO2. After 48 hours, the cells in each well were treated with 400 µL fresh media containing either 0.5 % DMSO (sterile filtered; Sigma Aldrich), 20 µM SID 26681509 (a known Cts L inhibitor; Tocris), 10 µM E-64 (a known cell-permeable pan cathepsin inhibitor; Tocris), or 50 µM
RS1A. Cathepsin L activity in MDA-MB-231 cells were then evaluated using ICT’s Magic Red TM cathepsin-L substrate, MR-(FR) 2, according to the manufacturer’s protocol (Immunochemistry Technologies, LLC). After incubating the cells for 24 hours in the experimental conditions, 16 µL sterile Milli-Q H 2O (for the unstained cell controls) or 16 µL 26X Magic Red staining solution was added to each well, and the 24-well plate was covered with foil for 60 minutes in a 37°C incubator with 5% CO2. The media was removed from the cell monolayer surface and the cells were rinsed Dulbecco’s phosphate-buffered saline containing Mg 2+ and Ca2+ (DPBS; Corning) (2 x 500 µL DPBS/well with 1 min/rinse). The cells were then immediately visualized at 20X magnification with an Olympus CKX53 microscope with a Reflected Light Fluorescence Illuminator equipped with a green 530-550 nm exciter filler, 570 nm dichroic mirror , and a long pass 575 nm emission/barrier filter. Images were taken by Olympus EP50 camera via the Olympic EP app on an iPhone XR. Positive cells stained with Magic Red would appear red with more brightly stained vacuoles and lysosomes. […]
Cell fluorescence from raw images was analyzed using ImageJ -Fiji. The color images were first split into RGB channels; all Red-channel images were then quantified for integrated fluorescence density across the entire images at the same threshold. […]

SARS-CoV-2 pseudovirus = tested on: SARS-CoV-2 pseudovirus; parameters: method as in PMID 32221306; conditions: HEK 293/hACE2 cells; cited from earlier work
Cts S = target: T2, Cts S (Homo sapiens, UniProt P25774); assay: Cathepsin S inhibition assay with Z-LR-AMC; format: biochemical; conditions: approximate; competitive model
T2 construct: purchased Sigma-Aldrich; host or cells: FreeStyle 293-F cells
Method: as §1
Cathepsin S Inhibition Assay. For cathepsin S (Cts S, 2 mg/mL, solution; recombinant, expressed in FreeStyle™ 293-F cells, ≥90% pure by SDS-PAGE), various concentrations of the substrate Z- […]
A stock solution of 2 mg/mL enzyme in 45 mM Tris-HCl, pH 8.0, 124 mM NaCl, 2.4 mM KCl, 225 mM imidazole, 3 mM DTT, and 10% glycerol was diluted with assay buffer containing 5 mM DTT. Peptide (inhibitor) stock solutions […]
with the assay buffer. A 20 mM stock solution of the chromogenic substrate Z-LR-AMC (Bachem; […]
assay to ensure reproducibility. […]
progress curve (Figure S23). Similar to the analysis with Cts L, these curves were fit to Michaelis - Menten enzyme kinetic model in Prism 8 (GraphPad Software; La Jolla, CA) using Eq. S1 to determine Vmax and KM (Table S21). 5 Turnover number (k cat) was calculated by dividing Vmax by the enzyme concentration (Table S21).
(§2) Similar analysis was done for Cts V, Cts K, Cts S, and Cts B to evaluate and approximate the inhibitory effects of the thiopeptide RS1A. Initial evaluation of the kinetic parameters were obtained […]
(§3) 24), then the data were further analyzed with the non-linear regression method with a mixed - […]
the mechanism with the parameter α. Further fitting to an appropriate model (e.g. uncompetitive, competitive, or non-competitive model) was performed if needed. […]

Cts B = target: T3, Cts B (Homo sapiens, UniProt P07858); assay: Cathepsin B inhibition assay with Z-RR-AMC; format: biochemical; conditions: approximate; competitive model
T3 construct: cathepsin B (Cts B, ≥1,500 units/mg protein, solution; from human liver); purchased Sigma-Aldrich; host or cells: human liver (tissue-purified)
Method: as §1
Cathepsin B Inhibition Assay. For cathepsin B (Cts B, ≥1,500 units/mg protein, solution; from […]
and 5 mM DTT (pH 5.5). A stock solution of enzyme in 50 mM sodium acetate, pH 5.0, with 1 […]
Diluted solution of Cts B was […]
kinetic model in Prism 8 (GraphPad Software; La Jolla, CA) using Eq. S1 to determine Vmax and KM (Table S22). 5 Turnover number (k cat) was calculated by dividing Vmax by the enzyme concentration(Table S22).
as §2, §3
the mechanism with the parameter α. Further fitting to an appropriate model (e.g. uncompetitive, competitive, or non-competitive model) was performed if needed. The approximate kinetic parameters resulted from best fit models for the RS1A peptide and the corresponding proteases are […]
Table S24. Approximate Kinetic Parameters for Cts L, V, K, S, and B Inhibition by R S1A Peptide (μHLFR SAμ).
Protease α (Best Fitted Model) KI (μM) αKI or KI'
Cts S Very large (Competitive) 53.47 ± 11.42 - Cts B Very large (Competitive) >> 50 -

Cts L [1] = target: Cts L (Homo sapiens, UniProt P07711); assay: Cathepsin L inhibition assay with Z-FR-AMC; conditions: Cts L, mixed inhibition model fit, Z-FR-AMC, pH 5.5, 27 °C
Method: The peptide inhibitors were pre-incubated with the appropriate proteases in the assay buffer for 10 min to ensure full interactions prior being added to the fluorogenic substrates. The fluorescence of the reaction was monitored as a function of time at 460 nm with an excitation wavelength of 380 nm by a Tecan M1000 plate reader. Each assay was done in triplicates to ensure reproducibility.
Cathepsin L Inhibition Assay. For cathepsin L (Cts L, ≥ 0.5 units/mg protein, solution; from human liver), various concentrations of the substrate Z-FR-AMC (1 μM, 2 μM, 3 μM, 5 μM, 7
μM, 10 μM, 15 μM, and 20 μM) were reacted with 37.9 nM Cts L in a 96-well plate at 27 °C.
Assay buffer consisted of100 mM sodium acetate, 100 mM NaCl, 1 mM EDTA, and 5 mM DTT
with this KSP1 peptide were conducted in 12.3 mM Na2HPO4, 87.7 mM NaH2PO4, 100 mM NaCl,
5 mM DTT, 1 mM EDTA, pH 6.0 at 27 °C – the buffer condition used for this peptide construct
3 A stock solution of 220 μg/mL enzyme in 20 mM malonate, 1 mM EDTA, 400
mM NaCl, pH 5.5 was diluted with the assay buffer. Peptide (inhibitor) stock solutions were
prepared in a minimal amount of Milli-Q water then diluted to the desired concentrations with the
assay buffer. A 5 mM stock solution of the fluorogenic substrate Z-FR-AMC (Bachem; Torrance, CA, USA) was initially prepared in DMSO and diluted with assay buffer. The diluted solution of
Cts L was incubated in the assay buffer with or without the peptide inhibitor at room temperature
for 10 min. For each 50 μL reaction, 25 μL of this Cts L solution (either with or without the peptide inhibitor) was added to 25 μL diluted Z-FR-AMC substrate to initiate the reaction. The fluorescence of the reaction was monitored as a function of time at 460 nm with an excitation wavelength of 380 nm on the Tecan M1000 plate reader. Three independent trials were performed
for each assay to ensure reproducibility. For analysis, the fluorescence data was converted to rates
of proteolysis in terms of concentration (μM/min) by a conversion factor calculated from a linear
fit of the endpoint fluorescence at complete hydrolysis versus substrate concentration. The initial reaction rate was then calculated by extracting the slope of a linear fit of the first 2 min of the
progress curve (Figures S13-S19). These curves were fit to a Michaelis-Menten enzyme kinetic
Kinetics Analysis of the Peptide Inhibitors of Cathepsin L, V, K, B, and S
For Cts L, from initial evaluation of the kinetic parameters obtained from fitting to Michaelis-
data from Z-FR-AMC inhibition assays with Cts L was thus further fitted to a general Mixed
Inhibition Model in GraphPad Prism version 8.4.3 (GraphPad Software; La Jolla, CA), using
A mixed Inhibition Mechanism for Reversible Inhibitors. Abbreviations: E: enzymes;
S: substrate; I: inhibitor; P: product; EI: enzyme-inhibitor complex; ESI: enzyme-substrate-
inhibitor complex; KI: dissociation constant for the EI complex; αK I (also known as KI'):
dissociation constant for the ESI complex.
This general mixed-inhibition model uses a global fitting in which Vmax, KM, KI, constant α and are
shared. The constant α here determines the degree to which inhibitor binding changes the affinity
of the enzyme for substrate; the value of α is always greater than zero.5, 6 An α = 1 (K I = αKI)
complex (ES); the model then becomes identical to a noncompetitive inhibition model.5, 6 When α
> 1, the inhibitor binds preferentially to the free enzyme (E); if α = ∞, the inhibitor binds almost
exclusively the free enzyme and this model becomes identical to competitive inhibition.5, 6 If 0 <α

Cts L [2] = tested on: Cts L; parameters: method as in earlier work; conditions: 10 µM, 24-hour treatment; ref 20 (ESI); cited from earlier work

T1 sequence (P07711 114-333): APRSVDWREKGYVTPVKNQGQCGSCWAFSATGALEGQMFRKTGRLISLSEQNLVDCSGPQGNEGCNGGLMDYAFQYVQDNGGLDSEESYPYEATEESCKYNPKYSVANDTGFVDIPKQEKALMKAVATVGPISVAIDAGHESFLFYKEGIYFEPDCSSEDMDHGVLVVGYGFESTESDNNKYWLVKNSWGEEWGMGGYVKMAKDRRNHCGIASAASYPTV
Sequence of Cts L (Homo sapiens, UniProt P07711) (P07711 114-333): as above
T2 sequence (P25774 115-331): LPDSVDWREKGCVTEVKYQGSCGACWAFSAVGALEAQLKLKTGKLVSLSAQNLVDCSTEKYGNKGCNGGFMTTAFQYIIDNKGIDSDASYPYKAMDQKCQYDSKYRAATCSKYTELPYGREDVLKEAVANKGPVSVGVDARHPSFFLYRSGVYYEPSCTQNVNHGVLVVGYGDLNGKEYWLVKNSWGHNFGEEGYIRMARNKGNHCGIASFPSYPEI

Q: Which “Cathepsin Activity (%), single technical replicates” value (Cathepsin L; 20 uM, listed as SID, 20 µM) does the source give for `CCc1ccccc1NC(=O)CSC(=O)NNC(=O)[C@H](Cc1c[nH]c2ccccc12)NC(=O)OC(C)(C)C` [SID 26681509] here?
A: Its value is 93.8537% and 84.7857% and 75.9763% and 71.3834% and 62.7105% and 65.0709%.

Q: What about the “Decrease of SARS-CoV-2 pseudovirus entry” value (SARS-CoV-2 pseudovirus) of the same compound?
A: The value was “more than 76%”.

Q: For `COc1ccc2c(C[C@H](NC(=O)[C@H](C)NC(=S)[C@H](CCCNC(=N)N)NC(=O)[C@H](Cc3ccccc3)NC(=O)[C@H](CC(C)C)NC(=O)[C@H](Cc3c[nH]cn3)NC(=O)[C@@H](N)Cc3cc(=O)oc4cc(OC)ccc34)C(=O)O)cc(=O)oc2c1` [RS1A] (H-[Ala(7-MeO-coumarin-4-yl)]HLF[X1][Ala(7-MeO-coumarin-4-yl)]-OH), which Ki (Cts S) is on record?
A: Its Ki is 53.5 ± 11.4 µM.

Q: What about the Ki (Cts B) of the same compound?
A: Its Ki is > 50 µM.

Q: What about the Ki (Cts L [1]) of the same compound?
A: Its Ki is 1.11 ± 0.22 µM.

Q: Which “Reduction of Cts L activity in MDA-MB-231 cells” value (Cathepsin L; 10 µM, 24 hours) does the source give for `CC(C)C[C@H](NC(=O)[C@H]1O[C@@H]1C(=O)O)C(=O)NCCCCN=C(N)N` [E-64] here?
A: Its value is 32%.

Q: What about the “Cathepsin Activity (%), single technical replicates” value (Cathepsin L; 10 uM, 10 µM) of the same compound?
A: Its value is 74.2204% and 67.3402% and 72.3857% and 56.9211% and 49.1973% and 90.0663%.

Q: What about the “Reduction of Cts L activity in MDA-MB-231 cells” value (Cts L [2]) of the same compound?
A: Its value is 30-40%.
